# Measured values taken from patent US8211945B2, “Carba-sugar amine derivative and glycolipid metabolic disorder treating agent containing the same as active ingredient” (Seikagaku Corporation, priority 2001, dated 2012).
# Positions count from the first letter of the chain named. “And” between values parts separate entries of the source, which are not always exact repeats. Equal entries are not always repeated.
# Key:
# [1] = target: T1, human normal β-galactosidase (GP8) (Homo sapiens, UniProt P16278); assay: Galactosidase inhibitory activity, enzyme from culture supernatant, 4-methylumbelliferyl-β-D-galactopyranoside substrate; assay type: biochemical; design: made in house; host or cells: SV40-immortalized β-galactosidase knockout mouse skin fibroblasts; Enzyme source was the supernatant after 24 h in NH4Cl medium, dialyzed and concentrated; details: 30 minutes
# T1 sequence (P16278 29-677): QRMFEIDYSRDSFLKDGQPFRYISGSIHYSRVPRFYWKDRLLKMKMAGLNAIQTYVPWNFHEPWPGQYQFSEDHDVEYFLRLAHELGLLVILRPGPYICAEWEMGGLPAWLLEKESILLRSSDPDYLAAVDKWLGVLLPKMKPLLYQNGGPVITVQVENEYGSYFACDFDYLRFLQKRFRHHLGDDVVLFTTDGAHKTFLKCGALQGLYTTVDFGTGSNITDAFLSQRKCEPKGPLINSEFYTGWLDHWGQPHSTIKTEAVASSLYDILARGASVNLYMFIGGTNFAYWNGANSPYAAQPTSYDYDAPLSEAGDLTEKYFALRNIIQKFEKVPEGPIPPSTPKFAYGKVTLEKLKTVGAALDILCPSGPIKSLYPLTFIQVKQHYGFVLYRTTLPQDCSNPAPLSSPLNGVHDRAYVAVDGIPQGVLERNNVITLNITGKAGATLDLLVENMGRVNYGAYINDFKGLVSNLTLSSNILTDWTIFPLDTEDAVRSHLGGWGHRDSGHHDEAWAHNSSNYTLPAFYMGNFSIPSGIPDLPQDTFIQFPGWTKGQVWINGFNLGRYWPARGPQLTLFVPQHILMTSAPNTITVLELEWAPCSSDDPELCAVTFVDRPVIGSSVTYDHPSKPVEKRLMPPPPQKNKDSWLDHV
# Experimental: Knockout mouse skin fibroblast introduced with a human normal β-galactosidase (GP8) cDNA (Biochem. Biophys. Res. Commun., 157(1), 238-244, 1988) and immortalized with an SV40 viral gene were cultured at 37° C. in an atmosphere of 5% CO2, using Dulbecco's modified Eagle's medium (to be referred to as “DMEM” hereinafter: manufactured by Gibco) containing 10% fetal calf serum (to be referred to as “FCS” hereinafter), and when the cells became 80% confluent, the medium was exchanged with FCS-free DMEM containing 10 mM of NH4Cl. After culturing for 24 hours, the supernatant was recovered and dialyzed against 10 mM phosphate buffer (pH=6.5) for 4 hours. Thereafter, the mixture was concentrated using VIVAPORE-20 (manufactured by Vivapore) and used as the enzyme source. Using 4-methylumbelliferyl-β-D-galactopyranoside as the fluorescent substrate, the enzyme activity during 30 minutes was measured in the presence or absence of the substance to be tested (Table 1). Final concentration of the substance 18 of the present invention was adjusted to 0.05, 0.125, 0.25, 0.5, 1, 2.5 or 5 μM.
# [2] = target: T2, human mutant β-galactosidase R201C (Homo sapiens, UniProt P16278, R201C); assay: Tissue migration and recovery of β-galactosidase activity, 1 week oral administration to recombinant mice; assay type: in vivo; details: for β-galactosidase activity, Test group: mice, 1 mM in drinking water, 1 week
# T2 construct: from tissue
# T2 sequence (P16278 29-677 R201C): T1 sequence (P16278 29-677) with R173C
# Experimental: One week thereafter, the mice were sacrificed to excise the cerebrum, the cerebellum, the heart, the lungs, the liver, the spleen, the kidney, a muscle (femoral muscle) and plasma. Also, tail tissues were used for the purpose of verifying changes in the β-galactosidase activity in the same individual before and after the administration. Each organ was crushed under ice-cooling using a homogenizer, and then the suspension of crushed cells was centrifuged at 8,000×g for 30 minutes. Thereafter, the supernatant fraction was recovered and used as an enzyme solution. The amount of protein in this enzyme solution was measured by the Bradford method, and the β-galactosidase activity was measured. With regard to the measurement of β-galactosidase activity, the enzyme activity during 30 minutes was measured at 37° C. using 4-methylumbelliferyl-β-D-galactopyranoside as the fluorogenic substrate. […] Three animals were used in each group to calculate the mean value.
structure (smiles),measurement,setting,value
"CCCCCCCCN[C@@H]1C=C(CO)[C@H](O)C(O)[C@@H]1O (stereo partly drawn) [Substance 18, N-octyl-5a-carba-α-L-arabino-hexo-5(5a)-enopyranosylamine]",activity at 0.05 µM,[1]; 0.050 umol/L substance,77%
same,activity at 0.125 µM,[1]; 0.125 umol/L substance,59.5%
same,activity at 0.25 µM,[1]; 0.250 umol/L substance,43.4%
same,activity at 0.5 µM,[1]; 0.500 umol/L substance,35.7%
same,activity at 1 µM,[1]; 1.000 umol/L substance,36%
same,activity at 2.5 µM,[1]; 2.500 umol/L substance,18.7%
same,activity at 5 µM,[1]; 5.000 umol/L substance,14.4%
same,"β-galactosidase activity, Test group",[2]; Cerebellum,55.4 nmol/mg protein/30 minutes
same,Improving degree,"[2]; Cerebellum, test group vs control",5.3 Times
same,"β-galactosidase activity, Test group",[2]; Cerebrum,50.5 nmol/mg protein/30 minutes
same,Improving degree,"[2]; Cerebrum, test group vs control",6.0 Times
same,"β-galactosidase activity, Test group",[2]; Heart,241.2 nmol/mg protein/30 minutes
same,Improving degree,"[2]; Heart, test group vs control",14.2 Times
same,"β-galactosidase activity, Test group",[2]; Kidney,171.1 nmol/mg protein/30 minutes
same,Improving degree,"[2]; Kidney, test group vs control",6.2 Times
same,"β-galactosidase activity, Test group",[2]; Liver,186.8 nmol/mg protein/30 minutes
same,Improving degree,"[2]; Liver, test group vs control",4.7 Times
same,"β-galactosidase activity, Test group",[2]; Lungs,98.9 nmol/mg protein/30 minutes
same,Improving degree,"[2]; Lungs, test group vs control",12.4 Times
same,"β-galactosidase activity, Test group",[2]; Muscle (femoral muscle),91.4 nmol/mg protein/30 minutes
same,Improving degree,"[2]; Muscle (femoral muscle), test group vs control",11.3 Times
same,"β-galactosidase activity, Test group",[2]; Plasma,23.0 nmol/mg protein/30 minutes
same,Improving degree,"[2]; Plasma, test group vs control",7.9 Times
same,"β-galactosidase activity, Test group",[2]; Spleen,266.2 nmol/mg protein/30 minutes
same,Improving degree,"[2]; Spleen, test group vs control",17.1 Times
same,"β-galactosidase activity, After feeding","[2]; Tail (administered group), after 1 week feeding",518.8 nmol/mg protein/30 minutes
same,Improving degree,"[2]; Tail (administered group), after vs before feeding, same individual",~8 Times and 6.7 Times
same,β-galactosidase activity improved in average in the test group,"[2]; average of organs, test group vs control",9.1 times
same,level of the activity obtained in the cerebrum and the cerebellum,"[2]; cerebrum and cerebellum, test group",about 50 nmol/mg protein/30 minutes
